Data published in ChEMBL document CHEMBL5360655, “Design, Synthesis, and Biological Evaluation of Novel P2X7 Receptor Antagonists for the Treatment of Septic Acute Kidney Injury” (J Med Chem, 2023).
Calls of active or inactive are those of the source. The rule behind the calls is not given here.

Tests used:
[1] = target: T1, P2X purinoceptor 7 (Mus musculus) (UniProt Q9Z1M0); assay: Antagonist activity at mouse P2X7 receptor expressed in HEK293 cells assessed as inhibition of ATP-induced receptor pore formation at 200 nM by propidium iodide dye uptake based fluorescence analysis; type: cell-based; conditions: filed as antagonist
T1 sequence (whole entry): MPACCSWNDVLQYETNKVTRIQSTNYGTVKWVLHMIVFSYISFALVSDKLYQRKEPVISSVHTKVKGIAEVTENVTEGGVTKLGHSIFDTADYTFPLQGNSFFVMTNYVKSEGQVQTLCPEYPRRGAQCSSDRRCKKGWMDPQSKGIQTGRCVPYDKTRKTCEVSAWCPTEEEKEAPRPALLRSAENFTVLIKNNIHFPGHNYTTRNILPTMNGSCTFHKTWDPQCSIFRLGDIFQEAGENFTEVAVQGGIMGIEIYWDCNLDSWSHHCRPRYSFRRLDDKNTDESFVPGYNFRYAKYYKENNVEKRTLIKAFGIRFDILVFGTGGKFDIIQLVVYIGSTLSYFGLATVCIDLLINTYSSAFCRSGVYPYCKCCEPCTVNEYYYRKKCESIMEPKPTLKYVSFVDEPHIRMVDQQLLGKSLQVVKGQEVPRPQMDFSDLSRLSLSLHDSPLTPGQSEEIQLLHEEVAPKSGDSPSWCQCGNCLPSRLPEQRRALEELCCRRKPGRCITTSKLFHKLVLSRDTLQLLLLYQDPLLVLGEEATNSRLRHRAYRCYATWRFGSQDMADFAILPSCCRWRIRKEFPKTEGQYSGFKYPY

[2] = Intrinsic clearance in human liver microsomes; type: ADME, Microsome; conditions: read-out: CLH
[3] = system: HEK293; assay: Cytotoxicity against human HEK293 cells transfected with human P2X7 receptor assessed as effect on cell viability at 1 to 4 uM incubated for 2 hrs by CCK8 assay; type: toxicity, cell-based; conditions: hek293, 2 h, dose 1-4 µM
[4] = system: THP-1; assay: Cytotoxicity against human THP-1 cells assessed as effect on cell viability at 1 to 4 uM incubated for 2 hrs by CCK8 assay; type: toxicity, cell-based; conditions: thp-1, 2 h, dose 1-4 µM
[5] = Clearance in BALB/c mouse at 10 mg/kg, iv measured for 24 hrs by LC-MS/MS analysis; type: ADME, organism-based; conditions: in vivo
[6] = Cmax in BALB/c mouse at 10 mg/kg, iv measured for 24 hrs by LC-MS/MS analysis; type: ADME, organism-based; set-up: time 24 hrs, dose 10 mg/kg, route iv; conditions: in vivo
[7] = Half life in BALB/c mouse at 10 mg/kg, po measured for 24 hrs by LC-MS/MS analysis; type: ADME, organism-based; conditions: in vivo
[8] = Tmax in BALB/c mouse at 10 mg/kg, iv measured for 24 hrs by LC-MS/MS analysis; type: ADME, organism-based; conditions: in vivo
[9] = Oral bioavailability in BALB/c mouse at 10 mg/kg measured for 24 hrs by LC-MS/MS analysis; type: ADME, organism-based; conditions: in vivo
[10] = AUC(0 to t) in BALB/c mouse at 10 mg/kg, ip measured for 24 hrs by LC-MS/MS analysis; type: ADME, organism-based; set-up: dose 10 mg/kg, time 24 hrs, route ip; conditions: in vivo
[11] = target: Cytochrome P450 3A4 (Homo sapiens, UniProt P08684); assay: Inhibition of CYP3A4 in human liver microsomes using midazolam as substrate upto 100 uM incubated for 10 mins in presence of NADPH by LC-MS/MS analysis; type: ADME, Microsome
[12] = target: Cytochrome P450 2C19 (Homo sapiens, UniProt P33261); assay: Inhibition of CYP2C19 in human liver microsomes using S-mephenytoin as substrate upto 100 uM incubated for 10 mins in presence of NADPH by LC-MS/MS analysis; type: ADME, Microsome
[13] = target: Cytochrome P450 2D6 (Homo sapiens, UniProt P10635); assay: Inhibition of CYP2D6 in human liver microsomes using dextromethorphan as substrate upto 100 uM incubated for 10 mins in presence of NADPH by LC-MS/MS analysis; type: ADME, Microsome
[14] = target: Cytochrome P450 2E1 (Homo sapiens, UniProt P05181); assay: Inhibition of CYP2E1 in human liver microsomes using cholorzoxazone-as substrate upto 100 uM incubated for 10 mins in presence of NADPH by LC-MS/MS analysis; type: ADME, Microsome
[15] = target: Voltage-gated inwardly rectifying potassium channel KCNH2 (Homo sapiens, UniProt Q12809); assay: Inhibition of hERG expressed in CHO cells; type: toxicity, cell-based
[16] = system: THP-1; assay: Effect on P2X7 receptor expression in human THP-1 cells at 0.1 to […] pretreated with LPS for 3 hrs followed by incubation with compound for 40 mins followed by treatment with ATP for 1 hr by western blot analysis; type: functional, cell-based; conditions: dose 0.1-2.5 µM, time 100.0 min
[17] = Toxicity in C57BL/6J mouse assessed as pathological changes in liver at 20 mg/kg, ip administered twice at 0 hrs and 8 hrs and measured after 16 hrs by Hematoxylin-Eosin staining based analysis; type: organism-based; conditions: in vivo
[18] = Toxicity in C57BL/6J mouse assessed as pathological changes in kidney at 20 mg/kg, ip administered twice at 0 hrs and 8 hrs and measured after 16 hrs by Hematoxylin-Eosin staining based analysis; type: organism-based; conditions: in vivo
[19] = Toxicity in C57BL/6J mouse assessed as pathological changes in testes at 20 mg/kg, ip administered twice at 0 hrs and 8 hrs and measured after 16 hrs by Hematoxylin-Eosin staining based analysis; type: organism-based; conditions: in vivo
[20] = Toxicity in C57BL/6J mouse assessed as animal's survival rate at 400 mg/kg, ip measured for 14 days; type: organism-based; conditions: in vivo, time 14 day
[21] = system: Mus musculus; assay: Reno-protective activity against LPS-induced acute kidney injury C57BL/6J mouse model assessed as decrease in serum […] level at 5 to 20 mg/kg, ip administered twice at 30 mins prior to LPS challenge and 8 hrs post-LPS challenge and measured at 16 hrs post-LPS challenge; type: functional, organism-based; conditions: dose 5-20 mg/kg, time 16.5 hrs
[22] = system: Mus musculus; assay: Reno-protective activity against CLP-induced acute kidney injury C57BL/6J mouse model assessed as decrease in tubular injury at 20 mg/kg, ip administered twice at 30 mins prior to CLP operation and 8 hrs post-CLP operation and measured at 16 hrs post-CLP operation by Hematoxylin-Eosin staining based analysis; type: functional, organism-based; conditions: time 16.5 hrs
[23] = system: Mus musculus; assay: Reno-protective activity against CLP-induced acute kidney injury C57BL/6J mouse model assessed as decrease in Il17 gene expression in kidney at 20 mg/kg, ip administered twice at 30 mins prior to CLP operation and 8 hrs post-CLP operation and measured at 16 hrs post-CLP operation by RNA sequencing analysis; type: functional, organism-based; conditions: time 16.5 hrs
[24] = system: Mus musculus; assay: Reno-protective activity against CLP-induced acute kidney injury C57BL/6J mouse model assessed as decrease in GSDMD mRNA expression in kidney at 20 mg/kg, ip administered twice at 30 mins prior to CLP operation and 8 hrs post-CLP operation and measured at 16 hrs post-CLP operation by RT-qPCR analysis; type: functional, organism-based; conditions: time 16.5 hrs
[25] = system: Mus musculus; assay: Reno-protective activity against CLP-induced acute kidney injury C57BL/6J mouse model assessed as decrease in cleaved IL-1 beta protein expression in kidney at 20 mg/kg, ip administered twice at 30 mins prior to CLP operation and 8 hrs post-CLP operation and measured at 16 hrs post-CLP operation by western blot analysis; type: functional, organism-based; conditions: time 16.5 hrs

Sequence of Cytochrome P450 2E1 (P05181 whole entry): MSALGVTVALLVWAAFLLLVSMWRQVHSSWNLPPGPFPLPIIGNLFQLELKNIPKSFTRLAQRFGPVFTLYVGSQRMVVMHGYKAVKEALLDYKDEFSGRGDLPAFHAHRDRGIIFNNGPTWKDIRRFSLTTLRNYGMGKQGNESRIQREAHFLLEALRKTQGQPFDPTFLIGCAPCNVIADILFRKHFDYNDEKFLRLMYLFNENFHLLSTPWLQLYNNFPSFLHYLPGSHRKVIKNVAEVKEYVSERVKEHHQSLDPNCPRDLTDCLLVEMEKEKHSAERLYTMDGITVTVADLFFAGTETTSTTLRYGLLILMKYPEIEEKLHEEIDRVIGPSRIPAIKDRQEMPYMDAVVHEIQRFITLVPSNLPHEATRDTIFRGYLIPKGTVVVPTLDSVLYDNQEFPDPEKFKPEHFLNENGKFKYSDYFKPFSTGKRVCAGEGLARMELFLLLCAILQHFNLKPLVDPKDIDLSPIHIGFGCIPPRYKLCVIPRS
Sequence of Cytochrome P450 2D6 (P10635 whole entry): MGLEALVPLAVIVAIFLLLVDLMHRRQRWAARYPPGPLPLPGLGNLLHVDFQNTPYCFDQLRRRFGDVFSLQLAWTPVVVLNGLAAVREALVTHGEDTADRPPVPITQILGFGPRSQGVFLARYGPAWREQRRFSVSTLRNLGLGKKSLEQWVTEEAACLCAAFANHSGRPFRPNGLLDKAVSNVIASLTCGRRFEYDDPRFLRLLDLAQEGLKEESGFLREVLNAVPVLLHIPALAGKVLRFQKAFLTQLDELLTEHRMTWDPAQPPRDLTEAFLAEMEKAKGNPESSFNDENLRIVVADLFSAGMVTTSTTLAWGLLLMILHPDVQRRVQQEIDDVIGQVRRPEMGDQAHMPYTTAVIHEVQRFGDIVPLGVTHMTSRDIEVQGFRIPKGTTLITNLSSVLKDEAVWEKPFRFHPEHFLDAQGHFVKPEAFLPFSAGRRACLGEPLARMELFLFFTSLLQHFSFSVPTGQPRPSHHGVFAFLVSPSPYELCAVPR
Sequence of Cytochrome P450 3A4 (P08684 whole entry): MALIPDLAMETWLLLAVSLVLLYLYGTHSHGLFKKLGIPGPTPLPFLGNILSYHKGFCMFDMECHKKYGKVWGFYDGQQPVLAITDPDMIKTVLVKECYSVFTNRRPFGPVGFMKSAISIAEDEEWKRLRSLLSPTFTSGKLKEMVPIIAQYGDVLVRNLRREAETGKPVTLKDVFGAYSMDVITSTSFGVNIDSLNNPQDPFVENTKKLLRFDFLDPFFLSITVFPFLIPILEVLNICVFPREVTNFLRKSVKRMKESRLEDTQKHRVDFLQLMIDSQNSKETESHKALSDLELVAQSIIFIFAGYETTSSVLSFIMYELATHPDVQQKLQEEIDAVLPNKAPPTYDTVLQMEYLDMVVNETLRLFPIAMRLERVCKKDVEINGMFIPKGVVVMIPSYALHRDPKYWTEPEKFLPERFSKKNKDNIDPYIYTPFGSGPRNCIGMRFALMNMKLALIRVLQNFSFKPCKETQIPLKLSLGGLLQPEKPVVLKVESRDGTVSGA
Sequence of Cytochrome P450 2C19 (P33261 whole entry): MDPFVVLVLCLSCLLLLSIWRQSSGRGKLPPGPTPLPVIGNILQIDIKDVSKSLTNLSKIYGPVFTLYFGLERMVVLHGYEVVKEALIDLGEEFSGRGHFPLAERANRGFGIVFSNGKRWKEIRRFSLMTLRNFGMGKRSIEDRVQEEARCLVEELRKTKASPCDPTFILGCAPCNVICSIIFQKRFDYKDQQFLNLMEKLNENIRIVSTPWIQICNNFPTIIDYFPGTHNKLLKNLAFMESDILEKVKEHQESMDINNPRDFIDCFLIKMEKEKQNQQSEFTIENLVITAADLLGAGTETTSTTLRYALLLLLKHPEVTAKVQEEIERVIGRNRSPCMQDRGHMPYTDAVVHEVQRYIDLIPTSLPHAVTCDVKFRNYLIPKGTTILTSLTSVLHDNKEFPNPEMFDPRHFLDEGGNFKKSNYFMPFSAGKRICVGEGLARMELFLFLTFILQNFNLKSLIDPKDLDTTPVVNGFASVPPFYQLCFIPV
Sequence of Voltage-gated inwardly rectifying potassium channel KCNH2 (Q12809 whole entry): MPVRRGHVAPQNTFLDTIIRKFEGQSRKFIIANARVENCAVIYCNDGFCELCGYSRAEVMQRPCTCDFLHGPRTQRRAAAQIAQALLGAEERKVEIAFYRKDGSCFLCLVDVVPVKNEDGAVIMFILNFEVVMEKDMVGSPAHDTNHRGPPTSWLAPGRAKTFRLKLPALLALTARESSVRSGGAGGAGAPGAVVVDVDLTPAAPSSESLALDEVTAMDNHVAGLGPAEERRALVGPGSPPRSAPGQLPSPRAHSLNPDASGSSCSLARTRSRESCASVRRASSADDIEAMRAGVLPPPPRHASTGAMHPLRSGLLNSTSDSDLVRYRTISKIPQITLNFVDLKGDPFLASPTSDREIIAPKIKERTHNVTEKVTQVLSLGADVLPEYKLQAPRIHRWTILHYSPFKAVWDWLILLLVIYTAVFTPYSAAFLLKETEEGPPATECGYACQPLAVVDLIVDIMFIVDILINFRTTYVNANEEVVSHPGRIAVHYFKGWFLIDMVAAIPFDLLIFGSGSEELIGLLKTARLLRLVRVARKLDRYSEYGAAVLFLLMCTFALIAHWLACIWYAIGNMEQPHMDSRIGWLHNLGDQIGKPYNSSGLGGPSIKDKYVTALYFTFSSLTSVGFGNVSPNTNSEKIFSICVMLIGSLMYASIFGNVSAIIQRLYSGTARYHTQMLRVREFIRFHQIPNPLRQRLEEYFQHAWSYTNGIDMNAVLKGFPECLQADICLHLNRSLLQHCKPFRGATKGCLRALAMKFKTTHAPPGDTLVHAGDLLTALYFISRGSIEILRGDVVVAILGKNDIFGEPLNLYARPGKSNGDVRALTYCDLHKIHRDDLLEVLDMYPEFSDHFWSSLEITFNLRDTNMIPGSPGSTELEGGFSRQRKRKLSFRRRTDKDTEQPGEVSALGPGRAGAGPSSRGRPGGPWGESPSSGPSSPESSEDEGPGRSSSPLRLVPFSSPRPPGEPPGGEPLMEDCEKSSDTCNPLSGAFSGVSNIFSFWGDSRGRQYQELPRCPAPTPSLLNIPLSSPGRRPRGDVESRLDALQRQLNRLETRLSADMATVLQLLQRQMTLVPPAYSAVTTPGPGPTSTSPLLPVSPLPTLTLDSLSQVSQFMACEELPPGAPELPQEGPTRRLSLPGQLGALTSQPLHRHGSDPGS

Compound: CS(=O)(=O)c1ccc(-c2nc(C(=O)NCc3cn(-c4cc(Br)ccn4)nn3)cs2)cc1
- inhibition [1]: 101%
- CLint scaled [2]: 16.6 mL/min/kg
- Activity [3]: Non-Toxic
- Activity [4]: Non-Toxic
- clearance [5]: 9.83 mL/min/kg
- Cmax [6]: 4730 ng/mL
- half-life [7]: 1.92 h
- Tmax [8]: 0.19 h
- bioavailability [9]: 39.2%
- AUC(0-t) at 24 h [10]: 11900 ng·h/mL
- inhibition (INH) [11]: Not Active
- inhibition (INH) [12]: Not Active
- inhibition (INH) [13]: Not Active
- inhibition (INH) [14]: Not Active
- IC50 [15]: > 30 µM
- Activity [16]: inactive
- Activity [17]: Non-Toxic
- Activity [18]: Non-Toxic
- Activity [19]: Non-Toxic
- survival at 336 h [20]: 100%
- Activity [21]: Dose-Dependent Effect
- Activity [22]: Active
- Activity [23]: Active
- Activity [24]: Active
- Activity [25]: Active
